In patent US8940897B2, “1,3,4-oxadiazole and 1,3,4-thiadiazole β-lactamase inhibitors” (priority 2012, dated 2015):
Where a name gives a salt, the structure may show the parent alone.

What was measured:
[1] = system: bacterial strains that express the class D cephalosporinase OXA-15; test: Synergy MIC / standard BLI potentiation MIC assay, strains expressing OXA-15;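 also: more active means a lower MIC or sMIC than Avibactam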; format: cell-based, E. coli; conditions: in the presence of a β-lactam; comparator Avibactam (CCC)
Procedure, shortened: (§1)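 CLSI broth microdilution in CAMHB, ~10^5 CFU/mL, 18–20 h at 37 °C with aeration; engineered E. coli kept on 25 μg/mL tetracycline. Potentiation: β-lactam 128–0.13 μg/mL with BLI fixed at 4 μg/mL; synergy MIC: BLI serially diluted with fixed β-lactam. MIC is the lowest concentration without visible turbidity.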

[2] = system: bacterial strains that express KPC β-lactamases; test: Synergy MIC / standard BLI potentiation MIC assay, strains expressing KPC β-lactamases; format: cell-based; conditions: for at least one KPC strain and/or a better spectrum of activity against KPC strains than Avibactam; in the presence of a β-lactam
Procedure, shortened: as §1

| Compound | activity against bacterial strains that express OXA-15 β-lactamase compared with Avibactam [1] | activity against bacterial strains that express KPC β-lactamase compared with Avibactam [2] |
| --- | --- | --- |
| N[C@H]1C[C@H](c2nnc([C@@H]3CC[C@@H]4CN3C(=O)N4OS(=O)(=O)O)s2)C1 [Compound 783, (2S,5R)-2-(5-((1r,3S)-3-aminocyclobutyl)-1,3,4-thiadiazol-2-yl)-7-oxo-1,6-diazabicyclo[3.2.1]octan-6-yl hydrogen sulfate] | more active than Avibactam | more active than Avibactam |
| N=C(N)N[C@H]1C[C@@H](c2nnc([C@@H]3CC[C@@H]4CN3C(=O)N4OS(=O)(=O)O)s2)C1 [Compound 784, (2S,5R)-2-(5-((1s,3R)-3-guanidinocyclobutyl)-1,3,4-thiadiazol-2-yl)-7-oxo-1,6-diazabicyclo[3.2.1]octan-6-yl hydrogen sulfate] | more active than Avibactam | more active than Avibactam |
| N=C(N)NCCc1nnc([C@@H]2CC[C@@H]3CN2C(=O)N3OS(=O)(=O)O)s1 [Compound 794, (2S,5R)-2-(5-(2-guanidinoethyl)-1,3,4-thiadiazol-2-yl)-7-oxo-1,6-diazabicyclo[3.2.1]octan-6-yl hydrogen sulfate] | more active than Avibactam | more active than Avibactam |
| N[C@H]1C[C@@H](c2nnc([C@@H]3CC[C@@H]4CN3C(=O)N4OS(=O)(=O)O)s2)C1 [Compound 795, (2S,5R)-2-(5-((1s,3R)-3-aminocyclobutyl)-1,3,4-thiadiazol-2-yl)-7-oxo-1,6-diazabicyclo[3.2.1]octan-6-yl hydrogen sulfate] | more active than Avibactam | more active than Avibactam |
